The source of these data is ChEMBL document CHEMBL5257025, “Artemisinin-Derived Dimers: Potent Antimalarial and Anticancer Agents” (J Med Chem, 2016).

The subject of one data set is Jurkat. Nature of the data set: Antiproliferative activity against human Jurkat cells assessed as reduction in cell viability incubated for 48 hrs by MTT assay. The data set is classed as functional, cell-based.
A further data set has as its system HCT-15. Nature of the data set: cells. The settings on record: Homo sapiens, HCT-15, 48 h.
In data set [1] the test system is SK-MEL. Nature of the data set: Antiproliferative activity against human SK-MEL cells assessed as reduction in cell viability incubated for 48 hrs by MTT assay. The data set is classed as functional, cell-based.
Data set [2] has as its system HL-60. Nature of the data set: Antiproliferative activity against human HL-60 cells assessed as reduction in cell viability incubated for 48 hrs by MTT assay. The class given is functional, cell-based. The note with it: HL-60, 48 h.
In another data set the test system is ADR5000 cell line. Nature of the data set: Antiproliferative activity against human CEM/ADR5000 cells assessed as reduction in cell viability incubated for 48 hrs by MTT assay. The settings on record: ADR5000, 48 h. The class given is functional, cell-based.
The test system of another data set is SK-OV-3. Nature of the data set: Antiproliferative activity against human SK-OV-3 cells assessed as reduction in cell viability incubated for 48 hrs by MTT assay. The settings on record: SK-OV-3, 48 h. The class given is functional, cell-based.
For data set [3], the system named is SK-MEL. Nature of the data set: Antiproliferative activity against human SK-MEL cells assessed as reduction in cell growth inhibition. The data set is classed as functional, cell-based.
Data set [4] relates to BT-549. Nature of the data set: Antiproliferative activity against human BT-549 cells assessed as reduction in cell viability incubated for 48 hrs by MTT assay. The data set is classed as functional, cell-based. The note with it: BT-549, 48 h.
The test system of the next data set is XF498. In words: Antiproliferative activity against human XF498 cells assessed as reduction in cell viability incubated for 48 hrs by MTT assay. The class given is functional, cell-based. The note with it: XF498, 48 h.
The subject of another data set is A549. Nature of the data set: cells. The settings on record: Homo sapiens, A549, 48 h.
Another data set concerns KB. Nature of the data set: Antiproliferative activity against human KB cells assessed as reduction in cell viability incubated for 48 hrs by MTT assay. The class given is functional, cell-based.
Another data set relates to SK-VLB. In words: Antiproliferative activity against human SK-VLB cells assessed as reduction in cell viability incubated for 48 hrs by MTT assay. The class given is functional, cell-based.
The nature of data set [5]: Cytotoxicity against pig LLC-PK1 cells. The note with it: read-out: TC50 (the source's name). The class given is toxicity, cell-based, Sus scrofa.
A further data set concerns SK-MEL-2. Nature of the data set: Antiproliferative activity against human SK-MEL-2 cells assessed as reduction in cell viability incubated for 48 hrs by MTT assay. The data set is classed as functional, cell-based. The note with it: SK-MEL-2, 48 h.
In another data set the test system is TK-10. In words: Antiproliferative activity against human TK-10 cells assessed as reduction in cell viability incubated for 48 hrs by SRB assay. The class given is functional, cell-based. The note with it: TK-10, 48 h.
The next data set relates to UACC-62. Nature of the data set: Antiproliferative activity against human UACC-62 cells assessed as reduction in cell viability incubated for 48 hrs by SRB assay. The data set is classed as functional, cell-based. The note with it: UACC-62, 48 h.
A further data set relates to MCF7. Nature of the data set: Antiproliferative activity against human MCF7 cells assessed as reduction in cell viability measured after 48 hrs by SRB assay. The class given is functional, cell-based. The settings on record: MCF7, 48 h.
Data set [6] relates to Plasmodium falciparum. Nature of the data set: Antimalarial activity against Plasmodium falciparum K1 assessed as inhibition of malarial growth. The data set is classed as functional, organism-based.
Data set [7] relates to Plasmodium falciparum. Nature of the data set: Antimalarial activity against Plasmodium falciparum NF54 assessed as reduction in cell growth. The data set is classed as functional, organism-based.
Data set [8] in a line: Cytotoxicity against African green monkey Vero cells. The class given is toxicity, cell-based. The settings on record: chlorocebus sabaeus, read-out: TC50 (the source's name).
For data set [9], the system named is Plasmodium falciparum. In words: Antimalarial activity against Plasmodium falciparum W2 assessed as reduction in malarial growth. The data set is classed as functional, organism-based.
In data set [10] the test system is HL-60. In words: Antiproliferative activity against human HL-60 cells assessed as cell growth inhibition measured after 48 hrs by SRB assay. The data set is classed as functional, cell-based. The settings on record: HL-60, 48 h.
Data set [11] concerns BT-549. Nature of the data set: Antiproliferative activity against human BT-549 cells assessed as cell growth inhibition measured after 72 hrs by SRB assay. The class given is functional, cell-based. The note with it: BT-549, 72 h.
Data set [12] concerns Plasmodium falciparum. Nature of the data set: microbe, parasite or virus in culture. The note with it: Dd2.
Description: Antiplasmodial activity against Plasmodium falciparum Dd2 assessed as inhibition of parasitic growth
Another data set has as its system CAKI-2. Nature of the data set: Antiproliferative activity against human CAKI-2 cells assessed as inhibition of cell growth. The class given is functional, cell-based.

SMILES strings stand for the structures.

Description for HCT-15: Antiproliferative activity against human HCT-15 cells assessed as reduction in cell viability incubated for 48 hrs by MTT assay

For the molecule `COc1cccc2c1C(=O)c1c(O)c3c(c(O)c1C2=O)C[C@@](O)(C(=O)CO)C[C@@H]3O[C@H]1C[C@H](N)[C@H](O)[C@H](C)O1` [DOXORUBICIN], the IC50 in the data set with Jurkat, in the data set on HCT-15, in the data set on SK-MEL [1], with HL-60 [2], in the data set on ADR5000 cell line and in the data set on SK-OV-3 was 9 nM each time. Further, the IC50 in the data set on SK-MEL [3] was 170 nM; with BT-549 [4], 9 nM; in the data set on XF498, 9 nM; in the data set on A549, 9 nM; in the data set with KB, 9 nM; in the data set with SK-VLB, 9 nM. In addition, the concentration for half-maximal inhibition (IC50) in the data set with SK-MEL-2 came to 9 nM. For the same molecule, the CC50 in data set [5] turned out to be 1290 nM.

As for `COc1cc([C@@H]2c3cc4c(cc3[C@@H](O[C@@H]3O[C@@H]5CO[C@@H](C)O[C@H]5[C@H](O)[C@H]3O)[C@H]3COC(=O)[C@H]23)OCO4)cc(OC)c1O` [ETOPOSIDE], the IC50 in the data set on TK-10, with UACC-62 and in the data set on MCF7 was 830 nM each time.

Regarding `C[C@@H]1CC[C@H]2[C@@H](C)C(=O)O[C@@H]3O[C@@]4(C)CC[C@@H]1[C@]32OO4` [ARTEMISININ], the IC50 in the data set with Plasmodium falciparum [6] stood at 7.81 nM; in the data set on Plasmodium falciparum [7], 6.9 nM; in the data set with Plasmodium falciparum [9], 6.6 nM; with HL-60 [10], 40000 nM; in the data set on BT-549 [11], 40000 nM; in the data set with Plasmodium falciparum [12] it was 6.9 nM. In addition, in the data set on CAKI-2, the IC50 was 40000 nM. For the same molecule, the CC50 in data set [8] is more than 1690 nM.
